{
  "source": "patent US4510144A",
  "about": "“Methods of imparting immunomodulating activity with dihydrothiazolo purine derivatives” (Newport Pharmaceuticals International, priority 1982, dated 1985)",
  "key": {"[1]": {"test_system": "Herpes Simplex Virus Type I", "test": "inhibition of Herpes Simplex Virus replication", "format": "cell-based", "details": "read-out: % inhibition of viral growth"}, "macrophages": {"test_system": "macrophages", "test": "lymphokine (macrophage mitogenic factor, MMF) induced macrophage proliferation in vitro", "format": "cell-based", "text": "(2) Lymphokine (macrophage mitogenic factor, MMF) induced macrophage proliferation (in vitro\n2. NPT 16416 is also capable of augmenting the lymphokine (MMF) induced proliferation of macrophages causing a 70% enhancement of macrophage proliferation."}, "[2]": {"test_system": "antibody production to sheep red blood cells (SRBC)", "test": "antigen (SRBC) dependent antibody synthesis in vivo (IgM plaques)", "set-up": "species or system Balb/C mice", "details": "for #Ig M plaques (x ± S.E.): saline control 21 ± 1.1; for % change from control, Ig M plaques: Table VIII; for % change from control, antibody response to SRBC: Table X, *P ≤ 0.001 where starred", "procedure": "(3) Antigen (sheep red blood cell, SRBC) dependent antibody synthesis (in vivo)\nThere is set forth below the standard procedure which should be modified according to the solubility and other properties of the particular compound tested.\n1. A solution containing 500 μg/ml NPT is prepared by adding a preweighed amount of the drup powder to sterile BPS (phosphate buffered saline) and sonicating the solution for 30 minutes.\n1. NPT drug solution is made by dissolving 500 μg NPT per mil PBS.\n1. A 1.4% suspension of agarose in PBS (7 g in 500 ml) is autoclaved for 15 min.\n1. Mice are immunized as follows: sheep blood (sheep #23) is received weekly from Hyland labs. It is asceptically collected in two volumes of Alseviers to one volume of blood.\n6. The cell count is determined and the stock solution is diluted to 4×10^7 cells/ml. This final suspension is used for immunization.\n7. Each mouse is immunized by i.v. injection into the lateral tail vein (warmed in a 50° C. water bath for veinous dilation) with 0.1 ml SRBC (sheep red blood cell) suspensions; the final concentration of SRBC's is 4×10^6 per mouse.\n1. Mice are treated by i.p. injection on days […], 1, 2, and 3. A syringe (1 cc) is fitted with a one-half inch, 26 gauge needle. The needle is introduced at a 45° angle along the right side of the linea alba. A 0.2 ml volume is given to both drug and control treated groups.\n2. Drug groups are given 0.2 ml of a desired concentration NPT solution which, for a 20 g mouse, is […].\n1. Spleens are removed asceptically and placed individually in Falcon #2025 tissue culture tubes containing 3 ml MEM. The tubes are then stored on ice.\n2. Spleens are homogenized in the same tube with a teflon pestle attached to a G. K. Heller variable speed reversible motor connected with a G. K. Heller GT-21 motor controller setting #6.\n6. The cell count is obtained and the stock suspension is diluted to 1×10^7 cells/ml. The Coulter counter threshhold is set at 10. Red cells are lysed with three drops of Zap isoton.\n1. Thirty-five hundredths gram agarose and 0.53 grams MEM powder are placed into an Erlenmeyer flask. Fifty ml of distilled H2 O is then added to the flask.\n1. Five ml sheep blood (same batch as used for immunization) is washed three times in PBS using an IEC Clinical Standard Centrifuge, speed #4 (2800 RPM) for 10 min.\n1. Agar plates are removed from refrigerator and allowed to warm to room temperature. They are labeled in triplicate for each experimental group.\n2. Agar-filled tubes are removed from the water bath. One-tenth of the 10% SRBC's and 0.1 ml spleen cell suspension are added to each agar tube. The tubes are agitated on a Vortex mixer.\n3. The contents of the tubes are poured immediately into agar base plates and swirled until a smooth layer is formed. The plates are placed on a level surface until the agar solidifies.\n4. The plates are incubated at 37° C. in a humidified atmosphere of 5% CO2 and 95% air for 90 min.\n6. Plates are removed from incubator and 1 ml of the diluted complement is added to each plate.\n7. Plates are then incubated another 30-45 minutes at 37° C. Plates are then removed from incubator and counted using oblique light."}, "[3]": {"test": "preliminary toxicity studies in Balb/C mice", "format": "in vivo", "procedure": "If it is assumed 50 mg/kg is the minimum lethal dose and it is assumed <0.05 mg/kg is the minimum effective dose, the lowest possible therapeutic ratio for NPT 16416 is 50/0.05 or 1000/1.0. It is believed that the toxicity is far less by the oral route since 500 mg/kg p.o. produced no deaths in Balb/c mice."}},
  "data": [
    {"smiles": "Oc1ncnc2c1nc1n2CCS1", "note": "[NPT 16416, 3-hydroxy-7,8-dihydrothiazolo-[3,2e]-purine]", "values": [
      {"measurement": "inhibition at 37.5 µg/mL", "setting": "[1]; 37.5 μg/ml", "value": 33, "unit": "%"},
      {"measurement": "inhibition at 75 µg/mL", "setting": "[1]; 75 μg/ml", "value": 61, "unit": "%"},
      {"measurement": "inhibition at 150 µg/mL", "setting": "[1]; 150 μg/ml", "value": 65, "unit": "%"},
      {"measurement": "enhancement of lymphokine (MMF) induced macrophage proliferation", "setting": "macrophages", "value": 70, "unit": "%"},
      {"measurement": "#Ig M plaques (x ± S.E.)", "setting": "[2]; 0.05 mg/kg i.p.", "value": "39 ± 3.34"},
      {"measurement": "#Ig M plaques (x ± S.E.)", "setting": "[2]; 0.5 mg/kg i.p.", "value": "35 ± 2.06"},
      {"measurement": "#Ig M plaques (x ± S.E.)", "setting": "[2]; 5.0 mg/kg i.p.", "value": "9 ± 0.37"},
      {"measurement": "effect on antibody production in vivo, in words", "setting": "[2]; SRBC immunized mice", "value": "enhancement of production of specific antibodies in vivo"},
      {"measurement": "% change from control, Ig M plaques", "setting": "[2]; 0.05 mg/kg i.p.", "value": "+88%"},
      {"measurement": "% change from control, Ig M plaques", "setting": "[2]; 0.5 mg/kg i.p.", "value": "+66%"},
      {"measurement": "% change from control, Ig M plaques", "setting": "[2]; 5.0 mg/kg i.p.", "value": -58, "unit": "%"},
      {"measurement": "% change from control, antibody response to SRBC", "setting": "[2]; 0.5 mg/kg", "value": "+66%"},
      {"measurement": "% change from control, antibody response to SRBC", "setting": "[2]; 5.0 mg/kg, NPT 16485 N.S.", "value": -80, "unit": "%"},
      {"measurement": "enhancement of antibody production to SRBC", "setting": "[2]; mice, 0.05 mg/kg", "value": "88-226%"},
      {"measurement": "mortality", "setting": "[3]; 50 mg/kg i.p., Balb/C mice", "value": "no mortality"},
      {"measurement": "deaths", "setting": "[3]; 500 mg/kg p.o., Balb/c mice", "value": "no deaths"}
    ]}
  ]
}
